Measured values published in patent publication US20210113492A1, “METHOD FOR INHIBITING PROLIFERATION AND METASTASIS OF CANCER CELLS BY USING NAPHTHOQUINONE DERIVATIVE” (National Tsing Hua University, priority 2019, published 2021).

Tests used:
[1] = tested on: oral squamous cell carcinoma cells (OC3-IV2); experiment: Boyden chamber invasion assay, OC3-IV2; assay type: cell-based, human; settings: 5, 7.5 and 10 μM, 24 h, dose dependency (FIG. 2A)
Protocol: (§1) Cells were harvested by […] and resuspended in a serum-free medium with 0.1% BSA. Then, […] of cell suspension (2×10^5 cells) was seeded into the upper insert of SPLInsert with Polyethylene terephthalate (PET) membrane (pore size: 8.0 μm) (SPL Lifesciences, Korea) pre-coated with matrigel (BD Biosciences, San Jose, Calif.). The bottom well of 24-well plate of SPLInsert was filled with cell medium containing 10% FBS with different concentrations of isoplumbagin (5, 7.5 and 10 μM, Experimental group of oral squamous cell carcinoma cells (OC3-IV2); 2.5, 5 and 10 μM, Experimental groups of human primary glioblastoma cells (U87), human non-small cell lung carcinoma cells (H1299), human prostate cancer cells (PC3) and human cervical cancer cells (Hela)) or without isoplumbagin (DMSO added). […] Number of cells was counted using Image J. Relative invasion ability was calculated as cell number per area.
(§2) FIGS. 2A-2E show the inhibitory effect of different doses of isoplumbagin on invasion for oral squamous cell carcinoma cells (OC3-IV2), human primary glioblastoma cells (U87), human non-small cell lung carcinoma cells (H1299), prostate cancer cells (PC3) and cervical cancer cells (Hela) assessed with the Boyden chamber assays. *Compared with solvent control (DMSO). […]

[2] = tested on: human non-small cell lung carcinoma cells (H1299); experiment: Boyden chamber invasion assay, H1299; assay type: cell-based; settings: 2.5, 5 and 10 μM, 24 h, dose dependency (FIG. 2C)
Protocol: as §1, §2

[3] = tested on: human primary glioblastoma cells (U87); experiment: Mitochondrial morphology and distribution by immunofluorescence staining, U87; assay type: cell-based; settings: 1 μM or 2.5 μM, 24 hours, anti-TOM20 staining
Protocol: The effects of isoplumbagin on mitochondrial morphology and distribution of OC3-IV2, U87, H1299 and PC3 cell lines were measured by immunofluorescence staining After OC3-IV2, U87, H1299, and PC3 cells were treated with DMSO, 1 μM, or 2.5 μM isoplumbagin for 24 hours, cells were fixed by 4% (v/v) paraformaldehyde and permeabilized by 0.1% (v/v) Triton X-100. Cells were incubated in blocking buffer containing 1% bovine serum albumin. After blocking, cells were incubated overnight with indicated primary antibodies against TOM20 (a mitochondria marker, sc-11415, Santa Cruz), and then incubated with Alexa Fluor 488-conjugated secondary antibodies (A11001, Invitrogen). Nucleus was stained with DAPI, actin was stained with rhodamine phalloidin (A12379, Invitrogen) and cells were mounted using Prolong Gold reagent (P36930, Invitrogen). 63 images were taken by LSM800 confocal microscopes (Zeiss).
FIGS. 5A-5D show the effect of isoplumbagin on mitochondrial morphogenesis and distribution of oral squamous cell carcinoma cells (OC3-IV2), human primary glioblastoma cells (U87), human non-small cell lung carcinoma cells (H1299) and human prostate cancer cells (PC3). Cells treated with either solvent control (DMSO) or isoplumbagin were determined by immunofluorescence staining using anti-TOM20 (mitochondria, green) antibody, rhodamine phalloidin (actin, red) and DAPI (nucleus, blue). […]

mitochondrial complex IV = experiment: Mitochondrial complex activity in permeabilized cells (Oroboros); assay type: cell-based, human; settings: OC3-IV2 permeabilized with 5 μM digitonin; 2.5 μM
Protocol: For the cell permeabilization and measurement of mitochondrial complex activity in permeabilized cells using Oroboros Instruments, 5×10^5 cells/mL treated with DMSO or 2.5 μM isoplumbagin suspended in 2 mL MiR05 buffer (110 mM D-sucrose, 0.5 mM EGTA, 3.0 mM MgCl2, 60 mM lactobionic acid, 10 mM KH2PO4, 20 mM taurine, 20 mM HEPES, 1 g/L BSA, pH 7.1) were added in O2k Oxygraph chambers. After cells had stabilized at routine respiration, plasma membrane permeabilization was performed by adding 5 μM digitonin and then O2 consumption rate was measured in response to sequential additions of 10 mM glutamate and 2 mM malate or 10 mM succinate, followed by 5 mM ADP, […], 0.5 μM FCCP, 1 μM rotenone, 1 μM antimycin A, 0.1 mM TMPD, 0.4 mM ascorbate and 5 mM NaN3.
FIGS. 6A and 6B show the inhibitory effect of isoplumbagin on mitochondrial function and complex IV activity of oral squamous cell carcinoma cells (OC3-IV2). Oxygen consumption rate (OCR) of OC3-IV2 cells treated with DMSO (as control) or 2.5 μM isoplumbagin were measured by Oroboros instruments (FIG. 6A). […] OC3-IV2 cells treated with DMSO or 2.5 μM isoplumbagin were permeabilized with 5 μM digitonin (Dig) and added indicated substrates and inhibitors, and then mitochondria complex I/IV activity were determined by Oroboros instruments (FIG. 6B). […]

## CC1=CC(=O)c2cccc(O)c2C1=O [isoplumbagin, 5-hydroxy-3-methyl-1,4-naphthoquinone]
[1]
  cancer cells migrating through the membrane (invasion): decrease significantly
[2]
  cancer cells migrating through the membrane (invasion): decrease significantly
[3]
  mitochondrial morphogenesis and distribution: can alter the mitochondrial morphogenesis and distribution
Mitochondrial complex IV
  mitochondrial complex IV activity: inhibiting mitochondrial complex IV activity
